Laboratory results as given in patent US6544931B1, “Substituted heteroaryloxyacetanilides and their use as herbicides” (Bayer Aktiengesellschaft, priority 1999, dated 2003).
Where two headings read alike, the source gives them in different places. Blank lines part the entries; values can stand above or below the compound they belong to.

How the values were obtained:
weeds [1] = assay: Pre-emergence test; format: in vivo; conditions: result in words
Method: (§1) Solvent: 5 parts by weight of acetone
(§2) Emulsifier: 1 part by weight of alkylaryl polyglycol ether
(§3) To produce a suitable preparation of active compound, 1 part by weight of active compound is mixed with the stated amount of solvent, the stated amount of emulsifier is added and the concentrate is diluted with water to the desired concentration.
(§4) Seeds of the test plants are sown in normal soil. After about 24 hours, the soil is sprayed with the preparation of active compound such that the particular amount of active compound desired is applied per unit area. The concentration of the spray liquor is chosen so that the particular amount of active compound desired is applied in 1000 litre of water per hectare.
(§5) After three weeks, the degree of damage to the plants is rated in % damage in comparison to the development of the untreated controls.
(§6) 0%=no effect (like untreated control)

Setaria [2] = assay: Post-emergence test/greenhouse; format: in vivo; conditions: after three weeks
Method: as §1, §2, §3
(§7) Test plants which have a height of 5 to 15 cm are sprayed with the preparation of active compound such that the particular amounts of active compound desired are applied per unit area. The concentration of the spray liquor is chosen so that the particular amounts of active compound desired are applied in 1000 l of water/ha.
(§8) After three weeks, the degree of damage to the plants is rated in % damage in comparison to the development of the untreated control.
as §6

Ipomoea = assay: Post-emergence test/greenhouse; format: in vivo; conditions: 500 g of ai/ha, after three weeks
Method: as §1, §2, §3, §7, §8, §6

Galium = assay: Post-emergence test/greenhouse; format: in vivo; conditions: after three weeks
Method: as §1, §2, §3, §7, §8, §6

Avena fatua [3] = assay: Post-emergence test/greenhouse; format: in vivo; conditions: 500 g of ai/ha, after three weeks
Method: as §1, §2, §3, §7, §8, §6

Echinochloa = assay: Pre-emergence test/greenhouse; format: in vivo; conditions: 500 g of ai/ha, after three weeks
Method: as §1, §2, §3, §4, §5, §6

Setaria [4] = assay: Pre-emergence test/greenhouse; format: in vivo; conditions: after three weeks
Method: as §1, §2, §3, §4, §5, §6

Maize = assay: Pre-emergence test/greenhouse; format: in vivo; conditions: after three weeks, crop plant
Method: as §1, §2, §3, §4, §5, §6

Avena fatua [5] = assay: Pre-emergence test/greenhouse; format: in vivo; conditions: 500 g of ai/ha, after three weeks
Method: as §1, §2, §3, §4, §5, §6

Alopecurus = assay: Pre-emergence test/greenhouse; format: in vivo; conditions: 500 g of ai/ha, after three weeks
Method: as §1, §2, §3, §4, §5, §6

weeds [6] = assay: Post-emergence test; format: in vivo; conditions: result in words
Method: as §1, §2, §3, §7, §8, §6

Amaranthus [7] = assay: Post-emergence test/greenhouse; format: in vivo; conditions: after three weeks
Method: as §1, §2, §3, §7, §8, §6

Sinapis [8] = assay: Post-emergence test/greenhouse; format: in vivo; conditions: after three weeks
Method: as §1, §2, §3, §7, §8, §6

Lolium = assay: Pre-emergence test/greenhouse; format: in vivo; conditions: 500 g of ai/ha, after three weeks
Method: as §1, §2, §3, §4, §5, §6

Amaranthus [9] = assay: Pre-emergence test/greenhouse; format: in vivo; conditions: after three weeks
Method: as §1, §2, §3, §4, §5, §6

Cotton = assay: Pre-emergence test/greenhouse; format: in vivo; conditions: 500 g of ai/ha, after three weeks, crop plant
Method: as §1, §2, §3, §4, §5, §6

Eriochloa = assay: Pre-emergence test/greenhouse; format: in vivo; conditions: 500 g of ai/ha, after three weeks
Method: as §1, §2, §3, §4, §5, §6

[10] = logP by HPLC on reversed-phase column (EEC directive 79/831 Annex V.A8); format: physicochemical
Method: The lopP values given in Table 1 were determined in accordance with EEC directive 79/831 Annex V.A8 by HPLC (High Performance Liquid Chromatography) on a reversed-phase column (C 18). Temperature: 43° C. (a) Mobile phases for the determination in the acidic range: 0.1% aqueous phosphoric acid, acetonitrile; linear gradient of 10% acetonitrile to 90% acetonitrile—corresponding data in Table 1 are labelled a). Calibration was carried out using unbranched alkan-2-ones (with 3 to 16 carbon atoms) whose logP values are known (determination of the logP values by the retention times using linear interpolation between two successive alkanones).

Matricaria = assay: Pre-emergence test/greenhouse; format: in vivo; conditions: 125 g of ai/ha, after three weeks
Method: as §1, §2, §3, §4, §5, §6

Veronica = assay: Pre-emergence test/greenhouse; format: in vivo; conditions: 125 g of ai/ha, after three weeks
Method: as §1, §2, §3, §4, §5, §6

Sinapis [11] = assay: Pre-emergence test/greenhouse; format: in vivo; conditions: 500 g of ai/ha, after three weeks
Method: as §1, §2, §3, §4, §5, §6

Wheat = assay: Pre-emergence test/greenhouse; format: in vivo; conditions: 500 g of ai/ha, after three weeks, crop plant
Method: as §1, §2, §3, §4, §5, §6

Digitaria = assay: Pre-emergence test/greenhouse; format: in vivo; conditions: 500 g of ai/ha, after three weeks
Method: as §1, §2, §3, §4, §5, §6

Sugar beet = assay: Pre-emergence test/greenhouse; format: in vivo; conditions: 500 g of ai/ha, after three weeks, crop plant
Method: as §1, §2, §3, §4, §5, §6

[12] = reversed-phase HPLC column (C 18); a) acidic range: 0.1% aqueous phosphoric acid, acetonitrile gradient, HPLC C 18, 43° C., read-out: logP

Compound: CC(C)(C)N(C(=O)COc1nnc(C(F)(F)F)s1)c1ccc(Cl)cc1 [Example 1, N-(t-butyl)-N-(4-chlorophenyl)-2-(5-trifluoromethyl-1,3,4-thiadiazol-2-yl-oxy)-acetamide]
activity against weeds (weeds [1]): strong activity
melting point: 82 °C
degree of damage, Setaria (Setaria [2]; 500 g of ai/ha): 90%
degree of damage, Ipomoea (Ipomoea): 90%
degree of damage, Galium (Galium; 500 g of ai/ha): 90%
degree of damage, Avena fatua (Avena fatua [3]): 80%
degree of damage, Echinochloa (Echinochloa): 95%
degree of damage, Setaria (Setaria [4]; 500 g of ai/ha): 100%
degree of damage, Maize (Maize; 500 g of ai/ha): 0%
degree of damage, Avena fatua (Avena fatua [5]): 80%
degree of damage, Alopecurus (Alopecurus): 80%
activity against weeds (weeds [6]): strong activity

Compound: C#CCN(C(=O)COc1nnc(C(F)(F)F)s1)c1cccc(C(F)(F)F)c1 [Example 3]
activity against weeds (weeds [1]): strong activity
degree of damage, Amaranthus (Amaranthus [7]; 2000 g of ai/ha): 100%
degree of damage, Sinapis (Sinapis [8]; 2000 g of ai/ha): 100%
degree of damage, Setaria (Setaria [2]; 2000 g of ai/ha): 95%
degree of damage, Galium (Galium; 2000 g of ai/ha): 90%
degree of damage, Lolium (Lolium): 100%
degree of damage, Amaranthus (Amaranthus [9]; 500 g of ai/ha): 100%
degree of damage, Cotton (Cotton): 0%
degree of damage, Setaria (Setaria [4]; 500 g of ai/ha): 100%
degree of damage, Eriochloa (Eriochloa): 95%
degree of damage, Maize (Maize; 500 g of ai/ha): 0%
activity against weeds (weeds [6]): strong activity
chromatographic logP [10, 12]: 3.45

Compound: C#CCN(C(=O)COc1nnc(C(F)(F)F)s1)c1ccc(F)cc1 [Example 4]
activity against weeds (weeds [1]): strong activity
degree of damage, Amaranthus (Amaranthus [7]; 2000 g of ai/ha): 95%
degree of damage, Sinapis (Sinapis [8]; 2000 g of ai/ha): 95%
degree of damage, Setaria (Setaria [2]; 2000 g of ai/ha): 90%
degree of damage, Galium (Galium; 2000 g of ai/ha): 90%
degree of damage, Amaranthus (Amaranthus [9]; 125 g of ai/ha): 100%
degree of damage, Matricaria (Matricaria): 100%
degree of damage, Setaria (Setaria [4]; 125 g of ai/ha): 100%
degree of damage, Veronica (Veronica): 100%
degree of damage, Maize (Maize; 125 g of ai/ha): 0%
activity against weeds (weeds [6]): strong activity
chromatographic logP [10, 12]: 2.97

Compound: C#CCN(C(=O)COc1nc2ccccc2o1)c1ccc(F)cc1 [Example 6]
activity against weeds (weeds [1]): strong activity
melting point: 138 °C
degree of damage, Amaranthus (Amaranthus [7]; 500 g of ai/ha): 90%
degree of damage, Setaria (Setaria [2]; 500 g of ai/ha): 90%
degree of damage, Galium (Galium; 500 g of ai/ha): 90%
degree of damage, Amaranthus (Amaranthus [9]; 500 g of ai/ha): 100%
degree of damage, Sinapis (Sinapis [11]): 95%
degree of damage, Setaria (Setaria [4]; 500 g of ai/ha): 100%
activity against weeds (weeds [6]): strong activity

Compound: CC(C)(C)N(C(=O)COc1nnc(C(F)(F)F)s1)c1ccc(F)cc1 [Example 7]
activity against weeds (weeds [1]): strong activity
melting point: 85 °C
degree of damage, Amaranthus (Amaranthus [7]; 1000 g of ai/ha): 80%
degree of damage, Sinapis (Sinapis [8]; 1000 g of ai/ha): 80%
degree of damage, Setaria (Setaria [2]; 1000 g of ai/ha): 80%
degree of damage, Galium (Galium; 1000 g of ai/ha): 95%
degree of damage, Amaranthus (Amaranthus [9]; 500 g of ai/ha): 95%
degree of damage, Setaria (Setaria [4]; 500 g of ai/ha): 100%
degree of damage, Eriochloa (Eriochloa): 100%
degree of damage, Wheat (Wheat): 0%
degree of damage, Digitaria (Digitaria): 100%
degree of damage, Alopecurus (Alopecurus): 90%
activity against weeds (weeds [6]): strong activity

Compound: CC(C)(C)N(C(=O)COc1nnc(C(F)(F)F)s1)c1cccc(Cl)c1 [Example 9]
activity against weeds (weeds [1]): strong activity
melting point: 84 °C
degree of damage, Setaria (Setaria [2]; 500 g of ai/ha): 70%
degree of damage, Ipomoea (Ipomoea): 90%
degree of damage, Galium (Galium; 500 g of ai/ha): 90%
degree of damage, Echinochloa (Echinochloa): 95%
degree of damage, Setaria (Setaria [4]; 500 g of ai/ha): 100%
degree of damage, Sugar beet (Sugar beet): 0%
degree of damage, Maize (Maize; 500 g of ai/ha): 0%
activity against weeds (weeds [6]): strong activity

Further lines, results first:

chromatographic logP ([10]; reversed-phase HPLC column (C 18), pH=2.3, read-out: logP (at pH=2.3)): 2.54
Compound: CC(C)(C)N(C(=O)CO)c1ccc(Cl)cc1 [III-1, N-(t-butyl)-N-(4-chlorophenyl)-2-hydroxyacetamide]

melting point: 57 °C
Compound: C#CCN(C(=O)CO)c1ccc(F)cc1 [III-2, N-(4-fluorophenyl)-N-(2-propinyl)-2-hydroxyacetamide]

chromatographic logP ([10]; reversed-phase HPLC column (C 18), pH=2.5, read-out: logP (at pH=2.5)): 3.34
Compound: CC(C)(C)N(C(=O)CCl)c1ccc(Cl)cc1 [IV-1, N-(t-butyl)-N-(4-chlorophenyl)-2-chloroacetamide]

logP [10]: logP = 2.69^a)
Compound: C#CCN(C(=O)CCl)c1ccc(F)cc1 [IV-2, N-(4-fluorophenyl)-N-(2-propinyl)-2-chloroacetamide]
